# Assay results taken from patent US6048854A, “2,3-diaminopropionic acid derivative” (Sumitomo Pharmaceuticals Company, Limited, priority 1993, dated 2000).
# Like-named read-outs stand apart in the source and are kept apart here.
# Tests used:
# [1] = test system: platelet aggregation; assay: Platelet aggregation inhibitory activity (ADP-induced, human platelet rich plasma); assay type: cell-based; conditions: Homo sapiens
# Outline: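 Citrated human platelet-rich plasma […] was stirred with test compound for 2 min at 37 °C. Aggregation was then induced with ADP at 3 μg/ml final and monitored by nephelometry. IC50 is the concentration giving 50% inhibition of aggregation.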
# [2] = test system: human vitronectin; assay: Binding assay of platelet to adhesive protein: vitronectin (receptor binding inhibition); conditions: Table 4; fixed activated human platelets, 37° C., 60 minutes; read-out: receptor binding inhibition (IC50), Bitronectin
# Protocol: (§1) The blood was taken out from the elbow vein of a normal volunteer, and mixed with 1/10 volume of 3.8% sodium citrate. The blood was centrifuged at 1,000 rpm (150 g) for 10 minutes, and the supernatant is collected as a platelet rich plasma (PRP). The precipitates are centrifuged at 11,000 rpm (6000 g) for two minutes, and the supernatant is collected as a platelet poor plasma (PPP). To PRP is added prostaglandin I2 (PGl2) at a final concentration of 50 ng/ml, and the mixture was centrifuged at 11000 rpm for two minutes to give human platelet. The platelet was activated by washing with 3.8 mM HEPES-buffer (pH 7.4, Tyrode-HEPES buffer) containing 0.14 M sodium chloride, 2.7 mM potassium chloride, 3.7 mM sodium dihydrogen phosphate, 0.98 mM magnesium chloride, 1 mg/ml glucose, 50 ng/ml PGl2 and 0.35% bovine serum albumin (BSA), adding thereto 5 μM epinephrine, and 30 μM ADP (adenosine diphosphate), followed by being allowed to stand at room temperature for five minutes. To the activated platelet was added 0.05% p-formaldehyde, and the mixture was allowed to stand at room temperature for 30 minutes to give the fixed platelet, which was suspended in Tyrode-HEPES buffer to give a platelet suspension of a concentration of 2×10^8 ml^-1.
# (§2) Human fibrinogen from which fibronectin was previously removed by passing through gelatin-cepharose, human fibronectin or human vitronectin was diluted with 0.1 M aqueous sodium hydrogen carbonate solution to a concentration of 5 μg/ml, and the protein solution is put into a 96-well microplate at a volume of 200 μl/well. The microplate was allowed to stand at 4° C. overnight. The plate was washed with phosphate buffered saline (PBS), and subjected to blocking with 3% BSA at 37° C. for one hour. To the plate were added a platelet suspension (final concentration, 10^8 ml^-1) and a test compound of various concentrations (total volume, 200 μl/well), and the plate was incubated at 37° C. for 60 minutes. The plate was treated with 1000-fold diluted enzyme (HRP)-labelled anti-mouse IgG polyclonal antibody at 37° C. for 60 minutes, and thereto was added HRP chromogenic substrate (0.1 M phosphate buffer containing 0.4 mg/ml O-phenylenediamine,0.01% hydrogen peroxide, 0.1 M citric acid, pH 5), and reacted at room temperature for 15 minutes. The reaction was terminated by adding thereto 4.5 M sulfuric acid at a volume of 25 μl/well, and the absorbance at 490 nm was measured.
# [3] = test system: platelet aggregation; assay: Platelet aggregation inhibitory activity (ex vivo) after oral administration; assay type: in vivo; conditions: Cavia porcellus, guinea pig, oral 0.1 mg/kg, ADP 10 μg/ml
# Outline: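 Guinea pigs dosed orally at 0.1 mg/kg; citrated carotid blood taken before and at 0.5, 1, 2, 4 and 6 h. PRP aggregation induced by ADP (10 μg/ml final) at 37° C, measured turbidimetrically; inhibition = (1 − MAR sample/MAR predose) × 100.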
# [4] = biological target: T1, human fibrinogen (Homo sapiens, UniProt P05106+P08514); assay: Binding assay of platelet to adhesive protein: fibrinogen (receptor binding inhibition); conditions: Table 4; fixed activated human platelets, 37° C., 60 minutes
# T1 construct: centrifuged at 11000 rpm for two minutes to give human platelet; from tissue
# T1 sequence (P08514 32-887 limits assumed): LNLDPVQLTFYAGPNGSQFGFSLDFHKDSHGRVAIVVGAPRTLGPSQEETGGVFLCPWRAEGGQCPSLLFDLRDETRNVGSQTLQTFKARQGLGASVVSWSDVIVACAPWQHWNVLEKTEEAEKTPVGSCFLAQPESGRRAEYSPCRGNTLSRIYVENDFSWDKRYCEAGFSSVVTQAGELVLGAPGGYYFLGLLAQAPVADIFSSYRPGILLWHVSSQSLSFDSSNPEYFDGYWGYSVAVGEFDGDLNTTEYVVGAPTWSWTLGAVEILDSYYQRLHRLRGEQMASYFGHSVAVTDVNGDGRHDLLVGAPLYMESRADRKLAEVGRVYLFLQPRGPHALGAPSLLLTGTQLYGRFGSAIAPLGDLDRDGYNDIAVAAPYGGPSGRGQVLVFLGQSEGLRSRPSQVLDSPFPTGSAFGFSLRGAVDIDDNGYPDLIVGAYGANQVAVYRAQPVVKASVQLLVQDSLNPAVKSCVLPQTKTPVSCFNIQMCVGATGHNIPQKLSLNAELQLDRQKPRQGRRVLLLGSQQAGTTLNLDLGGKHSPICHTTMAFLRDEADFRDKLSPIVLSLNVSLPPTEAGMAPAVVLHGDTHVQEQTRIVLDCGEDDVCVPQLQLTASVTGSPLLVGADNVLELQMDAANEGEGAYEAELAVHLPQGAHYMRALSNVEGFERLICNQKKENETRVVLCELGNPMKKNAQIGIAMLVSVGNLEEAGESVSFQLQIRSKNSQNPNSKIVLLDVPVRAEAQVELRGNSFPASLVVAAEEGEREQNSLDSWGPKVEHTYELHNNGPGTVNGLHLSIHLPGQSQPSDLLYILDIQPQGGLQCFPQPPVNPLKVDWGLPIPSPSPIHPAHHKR
# T1 sequence (P08514 891-1039 limits assumed): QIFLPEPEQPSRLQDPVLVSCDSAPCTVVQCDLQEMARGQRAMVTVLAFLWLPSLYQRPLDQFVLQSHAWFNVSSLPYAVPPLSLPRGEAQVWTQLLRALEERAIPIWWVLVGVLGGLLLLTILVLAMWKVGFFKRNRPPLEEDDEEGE
# T1 sequence (P05106 27-788): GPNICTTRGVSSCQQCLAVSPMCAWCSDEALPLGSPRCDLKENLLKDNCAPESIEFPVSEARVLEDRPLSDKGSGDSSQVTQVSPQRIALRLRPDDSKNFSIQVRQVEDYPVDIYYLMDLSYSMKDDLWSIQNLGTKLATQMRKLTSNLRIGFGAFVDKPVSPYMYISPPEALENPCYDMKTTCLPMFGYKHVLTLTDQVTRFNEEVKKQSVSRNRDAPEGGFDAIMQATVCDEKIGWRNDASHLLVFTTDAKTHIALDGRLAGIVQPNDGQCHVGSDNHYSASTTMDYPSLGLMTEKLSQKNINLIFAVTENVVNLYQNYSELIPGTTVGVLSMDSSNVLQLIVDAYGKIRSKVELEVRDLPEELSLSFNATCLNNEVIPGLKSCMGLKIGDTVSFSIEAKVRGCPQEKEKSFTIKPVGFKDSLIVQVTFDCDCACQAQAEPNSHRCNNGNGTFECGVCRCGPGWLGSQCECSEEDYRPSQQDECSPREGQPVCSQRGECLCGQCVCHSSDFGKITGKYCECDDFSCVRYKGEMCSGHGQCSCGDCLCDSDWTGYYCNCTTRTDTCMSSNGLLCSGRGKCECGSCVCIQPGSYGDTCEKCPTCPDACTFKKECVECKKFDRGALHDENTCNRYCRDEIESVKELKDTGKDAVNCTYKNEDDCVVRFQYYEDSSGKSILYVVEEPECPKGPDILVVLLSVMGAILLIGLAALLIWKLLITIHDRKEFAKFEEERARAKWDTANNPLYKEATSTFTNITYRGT
# Protocol: as §1, §2
# [5] = test system: human fibronectin; assay: Binding assay of platelet to adhesive protein: fibronectin (receptor binding inhibition); conditions: Table 4; fixed activated human platelets, 37° C., 60 minutes
# Protocol: as §1, §2
# [6] = Table 2, same manner as Example 17
# [7] = 0.5 hr, read-out: platelet aggregation inhibitory rate (%), 0.5 hr
# [8] = 1 hr, read-out: platelet aggregation inhibitory rate (%), 1 hr
# [9] = 2 hrs, read-out: platelet aggregation inhibitory rate (%), 2 hrs
# [10] = 4 hrs, read-out: platelet aggregation inhibitory rate (%), 4 hrs
# [11] = 6 hrs, read-out: platelet aggregation inhibitory rate (%), 6 hrs
# [12] = Table 3, same manner as Example 17
"IC50 [1, 6] [µM]",IC50 [2] [µM],IC50 [4] [µM],IC50 [5] [µM],"IC50 [1, 12] [µM]",SMILES,"inhibition in vivo at 0.1 mg/kg [3, 7] [%]","inhibition in vivo at 0.1 mg/kg [3, 8] [%]","inhibition in vivo at 0.1 mg/kg [3, 9] [%]","inhibition in vivo at 0.1 mg/kg [3, 10] [%]","inhibition in vivo at 0.1 mg/kg [3, 11] [%]"
0.015,0.24,0.0022,0.31,–,"N=C(N)c1ccc(C(=O)NCCC(=O)NC[C@H](NS(=O)(=O)c2ccccc2C(F)(F)F)C(=O)O)cc1 [Example 21, (2S)-3-(3-(4-amidinobenzoylamino)propanoylamino)-2-(2-trifluoromethyl)benzenesulfonylaminopropanoic Acid]",96,99,100,100,100
0.032,4.8,0.024,0.28,–,"N=C(N)c1ccc(OCCCCC(=O)NC[C@H](NS(=O)(=O)c2ccccc2)C(=O)O)cc1 [Example 64, (2S)-3-(5-(4-amidinophenoxy)pentanoylamino)-2-benzenesulfonylaminopropanoic Acid]",50,0,0,0,0
–,0.5,0.0039,0.024,0.037,"Cc1cc(C)c(S(=O)(=O)N[C@@H](CNC(=O)CCCCCc2ccc(C(=N)N)cc2)C(=O)O)c(C)c1 [Example 92, (2S)-3-(6-(4-amidinophenyl)hexanoylamino)-2-(2,4,6-trimethyl)benzenesulfonylaminopropanoic Acid]",68,34,24,47,0
–,0.54,0.0063,0.51,0.017,"Cc1ccc(S(=O)(=O)N[C@@H](CNC(=O)CCNC(=O)c2ccc(C(=N)N)cc2)C(=O)O)cc1 [Example 76, (2S)-3-(3-(4-amidinobenzoylamino)propanoylamino)-2-(4-methyl)benzenesulfonylaminopropanoic Acid]",100,100,100,100,100
–,3.5,0.022,0.54,0.014,"Cc1ccccc1S(=O)(=O)N[C@@H](CNC(=O)CCNC(=O)c1ccc(C(=N)N)cc1)C(=O)O [Example 74, (2S)-3-(3-(4-amidinobenzoylamino)propanoylamino)-2-(2-methyl)benzenesulfonylaminopropanoic Acid]",92,100,100,100,100
0.057,0.5,0.0073,0.079,–,N=C(N)c1ccc(C(=O)NCCC(=O)NC[C@H](NS(=O)(=O)c2cccc3ccccc23)C(=O)O)cc1 [Example 20],76,91,99,100,100
0.015,0.13,0.0022,0.041,–,"COc1ccc(S(=O)(=O)N[C@@H](CNC(=O)CCCCOc2ccc(C(=N)N)cc2)C(=O)O)cc1 [Example 63, (2S)-3-(5-(4-amidinophenoxy)pentanoylamino)-2-(4-methoxy)benzenesulfonylaminopropanoic Acid]",57,48,26,3,0
